ChEMBL document CHEMBL1131792, “Structure-based design of a non-peptidic antagonist of the SH2 domain of GRB2” (Bioorg Med Chem Lett, 1999)

Legend:
[1] = target: T1, Growth factor receptor-bound protein 2 (Homo sapiens, UniProt P62993); assay: Inhibition of Grb2 SH2 domain binding to phospho-EGF receptor intracellular C-terminal domain at 5 mM
[2] = target: T1, Growth factor receptor-bound protein 2; assay: Inhibition of Grb2 SH2 domain binding to phospho-EGF receptor intracellular C-terminal domain

IC50 [2] [µM] | Structure (SMILES) | inhibition [1] [%]
 | O=P(O)(O)Oc1ccccc1 | 55
25.9 | Cc1sc(-c2nccc(N)n2)nc1-c1ccc(OP(=O)(O)O)cc1 | 
> 200 | Nc1ccnc(NCCc2ccc(OP(=O)(O)O)cc2)n1 | 
